Experimental findings from US11524968B2, “Heterocyclic compound as a protein kinase inhibitor” (HK inno.N Corporation, priority 2017, dated 2022) are described below.

The target in the assay is JAK1 (Homo sapiens (Human), UniProt P23458). Nature of the assay: Analysis of JAK1 activity inhibition ability (ADP-Glo Kinase Assay). In kind it is biochemical. The note with it: JAK1 enzyme, ADP-Glo luminescence, ATP 250 uM, IRS-itide substrate, 30° C. 40 minutes; read-out: IC50. In short, it runs like this:
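JAK1 enzyme, IRS-itide substrate (40 ng/mL) and 250 uM ATP, both as prepared in kinase buffer (Tris-HCl pH 7.5, MgCl2, BSA, DTT), reacted with compound 40 min at 30 °C. ADP formed was detected by ADP-Glo luminescence; IC50 is the concentration giving 50% inhibition versus control.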
Background: ADP-Glo first removes unused ATP, then detects ADP through luciferase.

Where only a bound is given, the exact number is not on record here.

Sequence of JAK1 (P23458 whole entry): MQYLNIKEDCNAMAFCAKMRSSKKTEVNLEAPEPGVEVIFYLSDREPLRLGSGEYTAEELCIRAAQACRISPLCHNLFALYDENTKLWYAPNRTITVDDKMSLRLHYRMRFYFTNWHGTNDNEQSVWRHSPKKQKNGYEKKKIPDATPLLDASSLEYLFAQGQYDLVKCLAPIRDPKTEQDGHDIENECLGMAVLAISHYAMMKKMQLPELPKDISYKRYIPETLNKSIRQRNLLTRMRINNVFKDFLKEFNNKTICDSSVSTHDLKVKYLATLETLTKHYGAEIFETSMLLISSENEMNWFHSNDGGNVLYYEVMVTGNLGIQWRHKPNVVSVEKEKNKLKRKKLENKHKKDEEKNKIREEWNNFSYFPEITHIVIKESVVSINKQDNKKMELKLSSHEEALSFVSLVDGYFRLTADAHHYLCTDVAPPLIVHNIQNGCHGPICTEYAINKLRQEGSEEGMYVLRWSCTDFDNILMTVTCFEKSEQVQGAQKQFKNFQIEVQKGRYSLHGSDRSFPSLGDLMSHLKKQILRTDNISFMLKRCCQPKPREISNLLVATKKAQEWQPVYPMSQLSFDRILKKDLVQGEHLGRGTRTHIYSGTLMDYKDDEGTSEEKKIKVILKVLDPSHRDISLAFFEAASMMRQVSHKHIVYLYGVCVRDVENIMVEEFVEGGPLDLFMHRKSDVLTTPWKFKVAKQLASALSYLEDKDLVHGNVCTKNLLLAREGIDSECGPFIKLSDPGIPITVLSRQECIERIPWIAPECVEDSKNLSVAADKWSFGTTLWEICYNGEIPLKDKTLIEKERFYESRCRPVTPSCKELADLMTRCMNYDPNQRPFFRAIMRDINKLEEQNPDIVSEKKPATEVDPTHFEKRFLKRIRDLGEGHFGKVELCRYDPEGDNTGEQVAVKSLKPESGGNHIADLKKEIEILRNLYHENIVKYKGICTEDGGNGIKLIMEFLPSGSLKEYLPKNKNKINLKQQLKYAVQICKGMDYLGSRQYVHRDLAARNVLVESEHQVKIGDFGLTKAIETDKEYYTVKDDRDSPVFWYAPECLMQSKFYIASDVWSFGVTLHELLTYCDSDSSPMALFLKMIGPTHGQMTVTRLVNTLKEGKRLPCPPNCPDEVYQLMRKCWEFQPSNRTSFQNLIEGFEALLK

Regarding `N#CCC(=O)Nc1ccc(-c2cc(NC(=O)C3CC3)nc3[nH]ccc23)cc1` [Example 239, N-(4-(4-(2-cyanoacetamido)phenyl)-1H-pyrrolo[2,3-b]pyridine-6-yl)cyclopropanecarboxamide], the IC50 – broadly, the concentration needed to halve the response being measured – lay in the range of 20 to 200 nM.

Turning to `Cc1cc(NC(=O)CC#N)ccc1-c1cc(NC(=O)C2CC2)nc2[nH]ccc12` [Example 240, N-(4-(4-(2-cyanoacetamido)-2-methylphenyl)-1H-pyrrolo[2,3-b]pyridin-6-yl)cyclopropanecarboxamide], the IC50 was above 200 nM.

As to `N#CC1(CC(=O)Nc2ccc(-c3cc(NC(=O)C4CC4)nc4[nH]ccc34)cc2)CC1` [Example 241, N-(4-(4-(2-(1-cyanocyclopropyl)acetamido)phenyl)-1H-pyrrolo[2,3-b]pyridin-6-yl)cyclopropanecarboxamide], the IC50 was in the range of 20 to 200 nM.

Regarding `CCC(=O)NC1CC=C(c2cc(NC(=O)C3CC3)nc3[nH]ccc23)CC1` (stereo not shown) [Example 242, N-(4-(4-propionamidocyclohex-1-en-1-yl)-1H-pyrrolo[2,3-b]pyridin-6-yl)cyclopropanecarboxamide], the IC50 was above 200 nM.

For `O=C(NC1CC=C(c2cc(NC(=O)C3CC3)nc3[nH]ccc23)CC1)c1ccccc1` (stereo not shown) [Example 243, N-(4-(6-(cyclopropanecarboxamido)-1H-pyrrolo[2,3-b]pyridin-4-yl)cyclohex-3-en-1-yl)benzamide], the IC50 lay in the range of 20 to 200 nM.

`CC1CC1C(=O)NC1CC=C(c2cc(NC(=O)C3CC3)nc3[nH]ccc23)CC1` (stereo not shown) [Example 244, N-(4-(6-(cyclopropanecarboxamido)-1H-pyrrolo[2,3-b]pyridin-4-yl)cyclohex-3-en-1-yl)-2-methylcyclopropane-1-carboxamide]: the 50% inhibitory concentration (IC50) is above 200 nM.

On to `O=C(Nc1cc(C2=CCC(NC(=O)C3CCCC3)CC2)c2cc[nH]c2n1)C1CC1` (stereo not shown) [Example 245, N-(4-(6-(cyclopropanecarboxamido)-1H-pyrrolo[2,3-b]pyridin-4-yl)cyclohex-3-en-1-yl)cyclopentanecarboxamide], for which the IC50 fell in the range of 20 to 200 nM.

As to `O=C(Nc1cc(C2=CCC(NC(=O)C3CC3)CC2)c2cc[nH]c2n1)C1CC1` (stereo not shown) [Example 246, N-(4-(6-(cyclopropanecarboxamido)-1H-pyrrolo[2,3-b]pyridin-4-yl)cyclohex-3-en-1-yl)cyclopropanecarboxamide], the IC50 lay within 20 to 200 nM.

In the case of `N#CCC(=O)NC1CC=C(c2cc(NC(=O)C3CC3)nc3[nH]ccc23)CC1` (stereo not shown) [Example 247, N-(4-(4-(2-cyanoacetamido)cyclohex-1-en-1-yl)-1H-pyrrolo[2,3-b]pyridin-6-yl)cyclopropanecarboxamide], the 50% inhibitory concentration (IC50) is 20 to 200 nM.

Take `O=C(CCC(F)(F)F)NC1CC=C(c2cc(NC(=O)C3CC3)nc3[nH]ccc23)CC1` (stereo not shown) [Example 248, N-(4-(4-(4,4,4-trifluorobutanamido)cyclohex-1-en-1-yl)-1H-pyrrolo[2,3-b]pyridin-6-yl)cyclopropanecarboxamide]: the concentration for half-maximal inhibition (IC50) is above 200 nM.

As for `O=C(Nc1cc(C2=CCN(C(=O)C3CCS(=O)(=O)CC3)CC2)c2cc[nH]c2n1)C1CC1` [Example 249, N-(4-(1-(1,1-dioxidotetrahydro-2H-thiopyran-4-carbonyl)-1,2,3,6-tetrahydropyridin-4-yl)-1H-pyrrolo[2,3-b]pyridin-6-yl)cyclopropanecarboxamide], the half-inhibitory concentration (IC50) lay within 20 to 200 nM.

Take `N#CCC(=O)N1CC=C(c2cc(NC(=O)C3CC3)nc3[nH]ccc23)CC1` [Example 250, N-(4-(1-(2-cyanoacetyl)-1,2,3,6-tetrahydropyridin-4-yl)-1H-pyrrolo[2,3-b]pyridin-6-yl)cyclopropanecarboxamide]: the IC50 was below 20 nM.

Turning to `O=C(Nc1cc(C2=CCN(C(=O)CN3CCS(=O)(=O)CC3)CC2)c2cc[nH]c2n1)C1CC1` [Example 251, N-(4-(1-(2-(1,1-dioxidothiomorpholino)acetyl)-1,2,3,6-tetrahydropyridin-4-yl)-1H-pyrrolo[2,3-b]pyridin-6-yl)cyclopropanecarboxamide], the half-inhibitory concentration (IC50) fell in the range of 20 to 200 nM.

As for `N#CCCC(=O)N1CC=C(c2cc(NC(=O)C3CC3)nc3[nH]ccc23)CC1` [Example 252, N-(4-(1-(3-cyanopropanoyl)-1,2,3,6-tetrahydropyridin-4-yl)-1H-pyrrolo[2,3-b]pyridin-6-yl)cyclopropanecarboxamide], the half-inhibitory concentration (IC50) was below 20 nM.

In the case of `O=C(Nc1cc(C2=CCN(C(=O)CC(F)(F)F)CC2)c2cc[nH]c2n1)C1CC1` [Example 253, N-(4-(1-(3,3,3-trifluoropropanoyl)-1,2,3,6-tetrahydropyridin-4-yl)-1H-pyrrolo[2,3-b]pyridin-6-yl)cyclopropanecarboxamide], the 50% inhibitory concentration (IC50) is 20 to 200 nM.

`O=C(Nc1cc(C2=CCN(C(=O)CCC(F)(F)F)CC2)c2cc[nH]c2n1)C1CC1` [Example 254, N-(4-(1-(4,4,4-trifluorobutanoyl)-1,2,3,6-tetrahydropyridin-4-yl)-1H-pyrrolo[2,3-b]pyridin-6-yl)cyclopropanecarboxamide]: the IC50 fell in the range of 20 to 200 nM.

For the compound `N#CCCC(=O)N1C2C=C(c3cc(NC(=O)C4CC4)nc4[nH]ccc34)CC1CC2` (stereo not shown) [Example 255, N-(4-(8-(3-cyanopropanoyl)-8-azabicyclo[3.2.1]oct-2-en-3-yl)-1H-pyrrolo[2,3-b]pyridin-6-yl)cyclopropanecarboxamide], the 50% inhibitory concentration (IC50) was below 20 nM.

For the compound `O=C(Nc1cc(C2=CC3CCC(C2)N3C(=O)C2CC2)c2cc[nH]c2n1)C1CC1` (stereo not shown) [Example 256, N-(4-(8-(cyclopropanecarbonyl)-8-azabicyclo[3.2.1]oct-2-en-3-yl)-1H-pyrrolo[2,3-b]pyridin-6-yl)cyclopropanecarboxamide], the concentration for half-maximal inhibition (IC50) was below 20 nM.

For the compound `N#CCC(=O)N1C2C=C(c3cc(NC(=O)C4CC4)nc4[nH]ccc34)CC1CC2` (stereo not shown) [Example 257, N-(4-(8-(2-cyanoacetyl)-8-azabicyclo[3.2.1]oct-2-en-3-yl)-1H-pyrrolo[2,3-b]pyridin-6-yl)cyclopropanecarboxamide], the half-inhibitory concentration (IC50) is below 20 nM.

With `O=C(Nc1cc(C2=CC3CCC(C2)N3C(=O)CCC(F)(F)F)c2cc[nH]c2n1)C1CC1` (stereo not shown) [Example 258, N-(4-(8-(4,4,4-trifluorobutanoyl)-8-azabicyclo[3.2.1]oct-2-en-3-yl)-1H-pyrrolo[2,3-b]pyridin-6-yl)cyclopropanecarboxamide], the IC50 was below 20 nM.

Regarding `N#CC1(C(=O)N2CC=C(c3cc(NC(=O)C4CC4)nc4[nH]ccc34)CC2)CC1` [Example 259, N-(4-(1-(1-cyanocyclopropane-1-carbonyl)-1,2,3,6-tetrahydropyridin-4-yl)-1H-pyrrolo[2,3-b]pyridin-6-yl)cyclopropanecarboxamide], the half-inhibitory concentration (IC50) was above 200 nM.

Consider `O=C(Nc1cc(C2=CCN(C(=O)C3CC(F)(F)C3)CC2)c2cc[nH]c2n1)C1CC1` [Example 260, N-(4-(1-(3,3-difluorocyclobutane-1-carbonyl)-1,2,3,6-tetrahydropyridin-4-yl)-1H-pyrrolo[2,3-b]pyridin-6-yl)cyclopropanecarboxamide], for which the IC50 was in the range of 20 to 200 nM.

On to `O=C(Nc1cc(C2=CC3CCC(C2)N3C(=O)CC(F)(F)F)c2cc[nH]c2n1)C1CC1` (stereo not shown) [Example 261, N-(4-(8-(3,3,3-trifluoropropanoyl)-8-azabicyclo[3.2.1]oct-2-en-3-yl)-1H-pyrrolo[2,3-b]pyridin-6-yl)cyclopropanecarboxamide], for which the concentration for half-maximal inhibition (IC50) was in the range of 20 to 200 nM.

`N#CCC(=O)N1[C@@H]2CC[C@H]1C=C(c1cc(NC(=O)C3CC3)nc3[nH]ccc13)C2` [Example 262, N-(4-((1S,5R)-8-(2-cyanoacetyl)-8-azabicyclo[3.2.1]oct-2-en-3-yl)-1H-pyrrolo[2,3-b]pyridin-6-yl)cyclopropanecarboxamide]: the concentration for half-maximal inhibition (IC50) lay within 20 to 200 nM.

For `O=C(Nc1cc(C2=CCN(C(=O)C3CC3(F)F)CC2)c2cc[nH]c2n1)C1CC1` (stereo not shown) [Example 263, N-(4-(1-(2,2-difluorocyclopropane-1-carbonyl)-1,2,3,6-tetrahydropyridin-4-yl)-1H-pyrrolo[2,3-b]pyridin-6-yl)cyclopropanecarboxamide], the IC50 is below 20 nM.

For the compound `O=C(Nc1cc(C2=CCN(C(=O)C3CC3)CC2)c2cc[nH]c2n1)C1CC1` [Example 264, N-(4-(1-(cyclopropanecarbonyl)-1,2,3,6-tetrahydropyridin-4-yl)-1H-pyrrolo[2,3-b]pyridin-6-yl)cyclopropanecarboxamide], the IC50 lay within 20 to 200 nM.

With `N#CCCCC(=O)N1CC=C(c2cc(NC(=O)C3CC3)nc3[nH]ccc23)CC1` [Example 265, N-(4-(1-(4-cyanobutanoyl)-1,2,3,6-tetrahydropyridin-4-yl)-1H-pyrrolo[2,3-b]pyridin-6-yl)cyclopropanecarboxamide], the half-inhibitory concentration (IC50) is below 20 nM.

On to `C=CC(=O)N1CC=C(c2cc(NC(=O)C3CC3)nc3[nH]ccc23)CC1` [Example 266, N-(4-(1-acryloyl-1,2,3,6-tetrahydropyridin-4-yl)-1H-pyrrolo[2,3-b]pyridin-6-yl)cyclopropanecarboxamide], for which the concentration for half-maximal inhibition (IC50) fell in the range of 20 to 200 nM.

Take `N#CC1(CC(=O)N2CC=C(c3cc(NC(=O)C4CC4)nc4[nH]ccc34)CC2)CC1` [Example 268, N-(4-(1-(2-(1-cyanocyclopropyl)acetyl)-1,2,3,6-tetrahydropyridin-4-yl)-1H-pyrrolo[2,3-b]pyridin-6-yl)cyclopropanecarboxamide]: the IC50 lay in the range of 20 to 200 nM.

Consider `CC(C#N)C(=O)N1CC=C(c2cc(NC(=O)C3CC3)nc3[nH]ccc23)CC1` (stereo not shown) [Example 269, N-(4-(1-(2-cyanopropanoyl)-1,2,3,6-tetrahydropyridin-4-yl)-1H-pyrrolo[2,3-b]pyridin-6-yl)cyclopropanecarboxamide], for which the 50% inhibitory concentration (IC50) was below 20 nM.

For the compound `C=CCC(=O)N1CC=C(c2cc(NC(=O)C3CC3)nc3[nH]ccc23)CC1` [Example 270, N-(4-(1-(but-3-enoyl)-1,2,3,6-tetrahydropyridin-4-yl)-1H-pyrrolo[2,3-b]pyridin-6-yl)cyclopropanecarboxamide], the half-maximal inhibitory concentration (IC50) was above 200 nM.
